In US7141252B2, “Composition for the treatment of burns, sunburns, abrasions, ulcers and cutaneous irritation” (priority 2003, dated 2006):

Tested on: burns
Test: Treating burns with different combinations of the ingredients
Type: in vivo
Conditions: topical treatment of burns, comparison of ingredient combinations

## OB(O)O [boric acid]
  healing of burns: appeared to advance healing without infection but only in a very limited fashion
